Measurements published in patent US11840528B2 (Hoffmann-La Roche Inc., priority 2018, dated 2023).

Legend:
h-GABA-A α5β3γ2 [1] = target: T1, h-GABA-A α5β3γ2 (Homo sapiens, UniProt P18507+P31644); experiment: Two-electrode voltage clamp electrophysiology in Xenopus laevis oocytes expressing GABAA receptors, modulation of GABA EC20 current; type: cell-based; set-up: host or cells: Xenopus laevis oocytes micro-injected with RNA transcripts of the subunits; conditions: Table 1; for Efficacy (GABA) %: % modulation of GABA EC20 = 100*(Fold increase-1); for Fold increase h-GABA-A α5β3γ2 oocyte: test compound at approx. 30 fold its Ki, GABA at EC20
Method in brief: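 Human α5β3γ2 GABAA receptors were expressed in Xenopus oocytes by RNA injection, with γ2 RNA 5–10-fold higher, and recorded 3–5 days later by two-electrode voltage clamp at −80 mV at room temperature. The test compound, at about 30× its Ki, was co-applied during a second GABA EC20 pulse. Efficacy is the extremum of the point-by-point ratio to the first response, expressed as 100*(Fold increase−1).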

h-GABA-A α5β3γ2 [2] = target: T1, h-GABA-A α5β3γ2; experiment: [3H]flumazenil competition binding assay, membranes of HEK293 cells expressing GABAA receptors; conditions: displacement of [3H]-Flumazenil 0.5 nM, HEK293 cells expressing human receptors, mean of two determinations; Table 1
Method in brief: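 Membranes from HEK293 cells transiently expressing human α5β3γ2 GABAA receptors, in Krebs-tris buffer pH 7.5, competed against [3H]flumazenil for 1 hour at 4° C to equilibrium. Bound radioactivity collected on GF/C filters and counted by liquid scintillation; Ki values are means of two determinations.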

| Efficacy (GABA) % (h-GABA-A α5β3γ2 [1]) [%] | Fold increase h-GABA-A α5β3γ2 oocyte (h-GABA-A α5β3γ2 [1]) | Ki (h-GABA-A α5β3γ2 [2]) [nM] | SMILES |
| --- | --- | --- | --- |
| 173 | 2.73 | 4.6 | Cc1ccc(-c2noc(CF)c2Cn2ncc(N3C[C@@H](C)O[C@@H](C)C3)cc2=O)cn1 [Example 243, 5-((2S,6R)-2,6-dimethylmorpholin-4-yl)-2-((5-(fluoromethyl)-3-(6-methylpyridin-3-yl)-1,2-oxazol-4-yl)methyl)pyridazin-3-one] |
| 149 | 2.49 | 1.7 | Cc1ccc(-c2noc(C)c2Cn2ncc(N3CCC(c4ccnn4C)CC3)cc2=O)cn1 [Example 166, 2-[[5-methyl-3-(6-methyl-3-pyridyl)isoxazol-4-yl]methyl]-5-[4-(2-methylpyrazol-3-yl)-1-piperidyl]pyridazin-3-one] |
| 86 | 1.86 | 18.6 | Cc1ccc(-c2noc(C)c2Cn2ncc(N3CC4(C[C@@H](F)CO4)C3)cc2=O)cn1 [Example 200, 5-[(7R)-7-fluoro-5-oxa-2-azaspiro[3.4]octan-2-yl]-2-[[5-methyl-3-(6-methyl-3-pyridyl)isoxazol-4-yl]methyl]pyridazin-3-one] |
| 108 | 2.08 | 1.8 | Cc1ccc(-c2noc(C)c2Cn2ncc(N(C)C3CC3)cc2=O)cn1 [Example 64, 5-(cyclopropyl(methyl)amino)-2-((5-methyl-3-(6-methylpyridin-3-yl)isoxazol-4-yl)methyl)pyridazin-3(2H)-one] |
| 216 | 3.16 | 0.5 | Cc1ccc(-c2noc(C)c2Cn2ncc(N3C[C@@H](C)O[C@H](C)C3)cc2=O)cn1 (single isomer, unassigned) [Example 30, 5-[(2R,6R)-2,6-dimethylmorpholin-4-yl]-2-[[5-methyl-3-(6-methyl-3-pyridyl)isoxazol-4-yl]methyl]pyridazin-3-one or enantiomer] |
| 167 | 2.67 | 13 | Cc1ccc(-c2noc(C)c2Cn2ncc(N3C[C@H]4COC[C@H]4C3)cc2=O)cn1 [Example 49, 5-[(3aR,6aS)-1,3,3a,4,6,6a-hexahydrofuro[3,4-c]pyrrol-5-yl]-2-[[5-methyl-3-(6-methyl-3-pyridyl)isoxazol-4-yl]methyl]pyridazin-3-one] |
| 118 | 2.18 | 25.3 | CCOC1CN(c2cnn(Cc3c(-c4ccc(Cl)nc4)noc3C)c(=O)c2)C1 [Example 220, 2-((3-(6-chloropyridin-3-yl)-5-methyl-1,2-oxazol-4-yl)methyl)-5-(3-ethoxyazetidin-1-yl)pyridazin-3-one] |
| 168 | 2.68 | 26.4 | CCOC(=O)C1CCN(c2cnn(Cc3c(-c4ccc(C)nc4)noc3C)c(=O)c2)CC1 [Example 8, ethyl 1-(1-((5-methyl-3-(6-methylpyridin-3-yl)-1,2-oxazol-4-yl)methyl)-6-oxopyridazin-4-yl)piperidine-4-carboxylate] |
| 136 | 2.36 | 35.8 | Cc1onc(-c2ccc(Cl)nc2)c1Cn1ncc(N2CC(OC(C)C(F)(F)F)C2)cc1=O (single isomer, unassigned) [Example 266] |

Continued, compound first:

| SMILES | Efficacy (GABA) % (h-GABA-A α5β3γ2 [1]) [%] | Fold increase h-GABA-A α5β3γ2 oocyte (h-GABA-A α5β3γ2 [1]) | Ki (h-GABA-A α5β3γ2 [2]) [nM] |
| --- | --- | --- | --- |
| Cc1ccc(-c2noc(C)c2Cn2ncc(-c3cnn(CC4(C)COC4)c3)cc2=O)cn1 [Example 176, 2-((5-methyl-3-(6-methylpyridin-3-yl)isoxazol-4-yl)methyl)-5-(1-((3-methyloxetan-3-yl)methyl)-1H-pyrazol-4-yl)pyridazin-3(2H)-one] | 103 | 2.03 | 29.7 |
| Cc1ccc(-c2nocc2Cn2ncc(N3CCO[C@H](C)C3)cc2=O)cn1 [Example 92, 5-[(2R)-2-methylmorpholin-4-yl]-2-[[3-(6-methyl-3-pyridyl)isoxazol-4-yl]methyl]pyridazin-3-one] | 167 | 2.67 | 25.6 |
| Cc1ccc(-c2noc(C)c2Cn2ncc(-c3ccc(OC(C)C)cc3)cc2=O)cn1 [Example 115, 5-(4-isopropoxyphenyl)-2-((5-methyl-3-(6-methyl-3-pyridyl)isoxazol-4-yl)methyl)pyridazin-3-one] | 87 | 1.87 | 10.4 |
| Cc1ccc(-c2noc(C)c2Cn2ncc(N3CCN(C(=O)C4CC4)CC3)cc2=O)cn1 [Example 9, 5-(4-(cyclopropanecarbonyl)piperazin-1-yl)-2-((5-methyl-3-(6-methylpyridin-3-yl)isoxazol-4-yl)methyl)pyridazin-3(2H)-one] | 153 | 2.53 | 15.9 |
| Cc1onc(-c2ccc(Cl)nc2)c1Cn1ncc(N2CCC3(CCO3)CC2)cc1=O [Example 270, 2-((3-(6-chloropyridin-3-yl)-5-methylisoxazol-4-yl)methyl)-5-(1-oxa-7-azaspiro[3.5]nonan-7-yl)pyridazin-3(2H)-one] | 144 | 2.44 | 27.8 |
| COC1CC2(C1)CN(c1cnn(Cc3c(-c4ccc(Cl)nc4)noc3C)c(=O)c1)C2 [Example 303] | 138 | 2.38 | 23.7 |
| Cc1ccc(-c2noc(CF)c2Cn2ncc(N3CC4(CCCO4)C3)cc2=O)nn1 [Example 295, 2-((5-(fluoromethyl)-3-(6-methylpyridazin-3-yl)isoxazol-4-yl)methyl)-5-(5-oxa-2-azaspiro[3.4]octan-2-yl)pyridazin-3(2H)-one] | 74 | 1.74 | 16 |
| CCn1nccc1C1CCN(c2cnn(Cc3c(-c4ccc(C)nc4)noc3C)c(=O)c2)CC1 [Example 167, 5-[4-(2-ethylpyrazol-3-yl)-1-piperidyl]-2-[[5-methyl-3-(6-methyl-3-pyridyl)isoxazol-4-yl]methyl]pyridazin-3-one] | 195 | 2.95 | 2.2 |
| CC1(C(=O)N2CCN(c3cnn(Cc4c(-c5ccc(Cl)cn5)noc4C4CC4)c(=O)c3)CC2)CC1 [Example 26, 2-((3-(5-Chloropyridin-2-yl)-5-cyclopropylisoxazol-4-yl)methyl)-5-(4-(1-methylcyclopropanecarbonyl)piperazin-1-yl)pyridazin-3(2H)-one] | 247 | 3.47 | 28.4 |
| Cc1ccc(-c2noc(C)c2Cn2ncc(N3CCN(CC(F)(F)F)CC3)cc2=O)cn1 [Example 31, 2-[[5-methyl-3-(6-methyl-3-pyridyl)isoxazol-4-yl]methyl]-5-[4-(2,2,2-trifluoroethyl)piperazin-1-yl]pyridazin-3-one] | 145 | 2.45 | 13.5 |
| Cc1ccc(-c2noc(C)c2Cn2ncc(N3CC4(CCC(C(F)(F)F)CO4)C3)cc2=O)nn1 (single isomer, unassigned) [Example 320] | 226 | 3.26 | 24.8 |
